{
  "source": "patent US20210338715A1",
  "about": "“PHARMACEUTICAL COMPOSITION FOR THE TREATMENT OF COVID-19” (RADINOR, LLC, priority 2020, published 2021)",
  "key": {"[1]": {"assay": "Side effects of systemic therapeutic use", "assay_type": "in vivo, human", "details": "systemic therapeutic use in the context of the invention", "description": "In line with the reaction kinetic knowledge from the topical application of ClO2 solutions by Noszticzius et al., it was possible to confirm in the course of the present invention that, contrary to the earlier fears of parts of the professional world, a systemic therapeutic use of reactive oxidative species such as ClO2 need not in any way be accompanied by undesirable or even damaging effects."}, "[2]": {"details": "humans; intake over a period of 14 days; cited from earlier work"}, "[3]": {"system": "coronavirus", "details": "cited from earlier work"}, "[4]": {"system": "human coronavirus", "details": "cited from earlier work"}},
  "data": [
    {"smiles": "[O][Cl+][O-]", "note": "[chlorine dioxide]", "values": [
      {"measurement": "serious side effects or deaths", "setting": "[1]", "result": "no such effects have come to light"},
      {"measurement": "lethal dose LD50", "setting": "[2]", "result": "292 mg per kilogram of body weight per day"},
      {"measurement": "effectiveness against coronavirus", "setting": "[3]", "result": "effective against coronavirus"},
      {"measurement": "effectiveness against human coronavirus", "setting": "[4]", "result": "effective against human coronavirus"}
    ]}
  ]
}
